Target: Trx-6×His-BCL6 (human BCL6 BTB domain covering amino-acid sequence 5-129) (Homo sapiens (Human), UniProt P41182)
Assay: HTRF in vitro assay (BCL6 / BCOR-AF633 peptide)
Format: binding
Settings: for activity in the HTRF assay: result in words
Experimental: The % inhibition at each concentration was calculated by normalising FRET ratio to the appropriate high (DMSO with all reagents) and low (DMSO without BCL6) controls.

Structure (SMILES)	HTRF pIC50 (further generated data, 1 nM Trx-6×His-BCL6, 300 nM BCOR-AF633 peptide, 0.5 nM anti-6×His-Terbium cryptate)	activity in the HTRF assay
Cn1c(=O)n(CC2C[C@H](F)CN2CC(F)(F)F)c2cc(Nc3ccnc(Cl)c3C#N)ccc21 (stereo in doubt) [Example 25h, 2-chloro-4-((3-(((2R,4S)-4-fluoro-1-(2,2,2-trifluoroethyl)pyrrolidin-2-yl)methyl)-1-methyl-2-oxo-2,3-dihydro-1H-benzo[d]imidazol-5-yl)amino)nicotinonitrile]	5.55	–
Cn1c(=O)n(C)c2cc(Nc3ccncc3C(F)(F)F)ccc21 [1,3-dimethyl-5-((3-(trifluoromethyl)pyridin-4-yl)amino)-1,3-dihydro-2H-benzo[d]imidazol-2-one]	–	did not exhibit the desired activity
Cn1c(=O)n(C)c2cc(Nc3cc(C(F)(F)F)nc4ncnn34)ccc21 [1,3-dimethyl-5-((5-(trifluoromethyl)-[1,2,4]triazolo[1,5-a]pyrimidin-7-yl)amino)-1,3-dihydro-2H-benzo[d]imidazol-2-one]	–	did not exhibit the desired activity
Cc1cncnc1Nc1ccc2c(c1)n(C)c(=O)n2C [1,3-dimethyl-5-((5-methylpyrimidin-4-yl)amino)-1,3-dihydro-2H-benzo[d]imidazol-2-one]	–	did not exhibit the desired activity
Cn1c(=O)n(CCc2ccccc2)c2cc(Nc3ccnc4ccnn34)ccc21 [1-methyl-3-phenethyl-5-(pyrazolo[1,5-a]pyrimidin-7-ylamino)-1,3-dihydro-2H-benzo[d]imidazol-2-one]	–	did not exhibit the desired activity
CCN(CC)CCn1c(=O)n(C)c2ccc(Nc3ccnc(Cl)c3C#N)cc21 [2-chloro-4-((3-(2-(diethylamino)ethyl)-1-methyl-2-oxo-2,3-dihydro-1H-benzo[d]imidazol-5-yl)amino)nicotinonitrile]	–	did not exhibit the desired activity
Cn1c(=O)n(C)c2cc(Nc3ccnc(C(F)(F)F)c3C#N)ccc21 [4-((1,3-dimethyl-2-oxo-2,3-dihydro-1H-benzo[d]imidazol-5-yl)amino)-2-(trifluoromethyl)nicotinonitrile]	–	did not exhibit the desired activity
Cc1nccc(Nc2ccc3c(c2)n(C)c(=O)n3C)c1C#N [4-((1,3-dimethyl-2-oxo-2,3-dihydro-1H-benzo[d]imidazol-5-yl)amino)-2-methylnicotinonitrile]	–	did not exhibit the desired activity
Cn1c(=O)n(C)c2cc(Nc3ncncc3C#N)ccc21 [4-((1,3-dimethyl-2-oxo-2,3-dihydro-1H-benzo[d]imidazol-5-yl)amino)pyrimidine-5-carbonitrile]	–	did not exhibit the desired activity
Cn1c(=O)n(CCC(C)(O)CCO)c2cc(Nc3nc(Cl)ncc3Cl)ccc21 (stereo not shown) [5-((2,5-dichloropyrimidin-4-yl)amino)-3-(3,5-dihydroxy-3-methylpentyl)-1-methyl-1,3-dihydro-2H-benzo[d]imidazol-2-one]	–	did not exhibit the desired activity
Cn1c(=O)n(CCC(C)(C)O)c2cc(Nc3ccnc(Cl)c3C(F)F)ccc21 [5-((2-chloro-3-(difluoromethyl)pyridin-4-yl)amino)-3-(3-hydroxy-3-methylbutyl)-1-methyl-1,3-dihydro-2H-benzo[d]imidazol-2-one]	–	did not exhibit the desired activity
Cn1c(=O)n(CCC(C)(C)O)c2cc(Nc3ccnc(Cl)c3C(F)(F)F)ccc21 [5-((2-chloro-3-(trifluoromethyl)pyridin-4-yl)amino)-3-(3-hydroxy-3-methylbutyl)-1-methyl-1,3-dihydro-2H-benzo[d]imidazol-2-one]	–	did not exhibit the desired activity
Cn1c(=O)n(CCC(C)(C)O)c2cc(Nc3cc(Cl)ncc3C(F)F)ccc21 [5-((2-chloro-5-(difluoromethyl)pyridin-4-yl)amino)-3-(3-hydroxy-3-methylbutyl)-1-methyl-1,3-dihydro-2H-benzo[d]imidazol-2-one]	–	did not exhibit the desired activity
Cn1c(=O)n(CCC(C)(C)O)c2cc(Nc3c(Cl)cncc3Cl)ccc21 [5-((3,5-dichloropyridin-4-yl)amino)-3-(3-hydroxy-3-methylbutyl)-1-methyl-1,3-dihydro-2H-benzo[d]imidazol-2-one]	–	did not exhibit the desired activity
COCCNc1cc(Nc2ccc3c(c2)n(C)c(=O)n3C)n2nccc2n1 [5-((5-((2-methoxyethyl)amino)pyrazolo[1,5-a]pyrimidin-7-yl)amino)-1,3-dimethyl-1,3-dihydro-2H-benzo[d]imidazol-2-one]	–	did not exhibit the desired activity
COc1c(Cl)ncnc1Nc1ccc2c(c1)n(C)c(=O)n2C [5-((6-chloro-5-methoxypyrimidin-4-yl)amino)-1,3-dimethyl-1,3-dihydro-2H-benzo[d]imidazol-2-one]	–	did not exhibit the desired activity
Cn1c(=O)n(CCC(C)(C)O)c2cc(Nc3cc4nccn4cc3Cl)ccc21 [5-((6-chloroimidazo[1,2-a]pyridin-7-yl)amino)-3-(3-hydroxy-3-methylbutyl)-1-methyl-1,3-dihydro-2H-benzo[d]imidazol-2-one]	–	did not exhibit the desired activity
Cn1c(=O)n(CCC(C)(C)O)c2cc(Nc3nc(Cl)ncc3Cl)ncc21 [6-((2,5-dichloropyrimidin-4-yl)amino)-1-(3-hydroxy-3-methylbutyl)-3-methyl-1,3-dihydro-2H-imidazo[4,5-c]pyridin-2-one]	–	did not exhibit the desired activity
Cn1c(=O)n(CCC(C)(C)O)c2cc(Nc3ccncc3Cl)ncc21 [6-((3-chloropyridin-4-yl)amino)-1-(3-hydroxy-3-methylbutyl)-3-methyl-1,3-dihydro-2H-imidazo[4,5-c]pyridin-2-one]	–	did not exhibit the desired activity
Cn1c(=O)n(CCC(C)(C)O)c2cc(Nc3cc(-n4ccc(C(F)(F)F)n4)ncc3Cl)ncc21 [6-((5-chloro-2-(3-(trifluoromethyl)-1H-pyrazol-1-yl)pyridin-4-yl)amino)-1-(3-hydroxy-3-methylbutyl)-3-methyl-1,3-dihydro-2H-imidazo[4,5-c]pyridin-2-one]	–	did not exhibit the desired activity

More lines, now with the values ahead:

HTRF pIC50 (further generated data, 1 nM Trx-6×His-BCL6, 300 nM BCOR-AF633 peptide, 0.5 nM anti-6×His-Terbium cryptate)	activity in the HTRF assay	Structure (SMILES)
–	did not exhibit the desired activity	Cn1c(=O)n(CC2CCOCC2)c2cc(Nc3ccnc(Cl)c3C#N)ccc21 [2-chloro-4-((1-methyl-2-oxo-3-((tetrahydro-2H-pyran-4-yl)methyl)-2,3-dihydro-1H-benzo[d]imidazol-5-yl)amino)nicotinonitrile]
–	did not exhibit the desired activity	Cn1c(=O)n(CC2CCCNC2)c2cc(Nc3ccnc(Cl)c3C#N)ccc21 (stereo not shown) [2-chloro-4-((1-methyl-2-oxo-3-(piperidin-3-ylmethyl)-2,3-dihydro-1H-benzo[d]imidazol-5-yl)amino)nicotinonitrile]
–	did not exhibit the desired activity	Cn1c(=O)n(CC2CCNCC2)c2cc(Nc3ccnc(Cl)c3C#N)ccc21 [2-chloro-4-((1-methyl-2-oxo-3-(piperidin-4-ylmethyl)-2,3-dihydro-1H-benzo[d]imidazol-5-yl)amino)nicotinonitrile]
–	did not exhibit the desired activity	Cn1c(=O)n(CCN2CCOCC2)c2cc(Nc3ccnc(Cl)c3C#N)ccc21 [2-chloro-4-((1-methyl-3-(2-morpholinoethyl)-2-oxo-2,3-dihydro-1H-benzo[d]imidazol-5-yl)amino)nicotinonitrile]
–	did not exhibit the desired activity	CCC(C)(O)Cn1c(=O)n(C)c2ccc(Nc3ccnc(Cl)c3C#N)cc21 (stereo not shown) [2-chloro-4-((3-(2-hydroxy-2-methylbutyl)-1-methyl-2-oxo-2,3-dihydro-1H-benzo[d]imidazol-5-yl)amino)nicotinonitrile]
–	did not exhibit the desired activity	Cn1c(=O)n(CC(O)C(C)(C)C)c2cc(Nc3ccnc(Cl)c3C#N)ccc21 (stereo not shown) [2-chloro-4-((3-(2-hydroxy-3,3-dimethylbutyl)-1-methyl-2-oxo-2,3-dihydro-1H-benzo[d]imidazol-5-yl)amino)nicotinonitrile]
–	did not exhibit the desired activity	Cn1c(=O)n(CC2CCOC2(C)C)c2cc(Nc3ccnc(Cl)c3C#N)ccc21 (stereo not shown) [2-chloro-4-((3-((2,2-dimethyltetrahydrofuran-3-yl)methyl)-1-methyl-2-oxo-2,3-dihydro-1H-benzo[d]imidazol-5-yl)amino)nicotinonitrile]
–	did not exhibit the desired activity	Cn1c(=O)n(CC2CC(C)(C)C2)c2cc(Nc3ccnc(Cl)c3C#N)ccc21 [2-chloro-4-((3-((3,3-dimethylcyclobutyl)methyl)-1-methyl-2-oxo-2,3-dihydro-1H-benzo[d]imidazol-5-yl)amino)nicotinonitrile]
–	did not exhibit the desired activity	Cn1c(=O)n(CC2(CO)COC2)c2cc(Nc3ccnc(Cl)c3C#N)ccc21 [2-chloro-4-((3-((3-(hydroxymethyl)oxetan-3-yl)methyl)-1-methyl-2-oxo-2,3-dihydro-1H-benzo[d]imidazol-5-yl)amino)nicotinonitrile]
–	did not exhibit the desired activity	Cn1c(=O)n(CC2(C#N)CCOCC2)c2cc(Nc3ccnc(Cl)c3C#N)ccc21 [2-chloro-4-((3-((4-cyanotetrahydro-2H-pyran-4-yl)methyl)-1-methyl-2-oxo-2,3-dihydro-1H-benzo[d]imidazol-5-yl)amino)nicotinonitrile]
–	did not exhibit the desired activity	Cn1c(=O)n(CC2CCN2)c2cc(Nc3ccnc(Cl)c3C#N)ccc21 (stereo not shown) [4-((3-(azetidin-2-ylmethyl)-1-methyl-2-oxo-2,3-dihydro-1H-benzo[d]imidazol-5-yl)amino)-2-chloronicotinonitrile]
